Data reported in publication PMC11358092, “Caspofungin enhances the potency of rifampin against Gram-negative bacteria” (Frontiers in Microbiology, 2024).
Where a name gives a salt, the structure may show the parent alone. Read-outs that look alike come from different tables or passages of the source. Numbered stars: 1 amine (or outer) side, 2 acyl side, 3 side chain; on linkers, the order of the positions; unused ones are H or OH. Bridge positions count the residues as written; N and C are the ends. Square brackets hold non-standard residues; d marks the D form. Peptide text beside a SMILES is read from it. * marks the point of attachment. pTerphenylCO(4''-OnC5H11) = CCCCCOc1ccc(-c2ccc(-c3ccc(C(=O)*)cc3)cc2)cc1; Orn(4R-OH,5R-OH) = O=C([C@H](C[C@@H](O)[C@@H](O)N[*:3])N[*:1])[*:2]; hTyr(3S-OH,4S-OH) = N[C@H](C(=O)O)[C@H](O)[C@@H](O)c1ccc(O)cc1; Pro(3S-OH,4S-Me) = C[C@H]1CN[C@H](C(=O)O)[C@H]1O; Hyp = O=C(O)[C@@H]1C[C@@H](O)CN1

Experiments:
[1] = tested on: E. coli MG1655; assay: microbe, parasite or virus in culture; format: cell-based, Escherichia coli; details: for FICI in combination with rifampin: 8 × 8 checkerboard, FICI ≤0.5 indicates synergy; for Synergistic activity with rifampin (in words): checkerboard assays, analogs of CAS
Description: (§1) Checkerboard assays were performed to evaluate the synergistic effect of CAS in combination with antibiotics as previously described ([Cai et al., 2023]). Briefly, antibiotics and CAS were diluted two times with MHB medium (with or without Mg^2+ or EDTA) in a 96-well plate, respectively, to form an 8 × 8 medium, and an equal volume (200 μL/well) of bacterial suspension with the drug was cultured. A microplate reader was used to measure the OD600 value after 18 h of culture at 37°C (the OD600 value over 0.1 indicates bacterial growth). The fractional inhibitory concentration index (FICI) was calculated using the following formula: FICI = MICab/MICa + MICba/MICb. MICa and MICb are the corresponding MIC values of compounds A and B alone, respectively; MICab is the MIC value of compound A combined with compound B; and MICba is the MIC value of compound B combined with compound A. Indicative of synergy is FICI ≤0.5.

[2] = tested on: E. coli MG1655; assay: High-throughput screening of FDA-approved drug library for antibiotic adjuvants (growth inhibition, OD600); format: cell-based, Escherichia coli
[3] = tested on: E. coli MG1655; assay: as above; format: cell-based, Escherichia coli; details: library drug alone, LB medium, 96-well, 8 h static culture at 37°C, relative to PMBN (positive) and DMSO (negative) controls, %, table head prints no unit
[4] = tested on: K+ channel (KvQT1/minK); details: vendor library annotation (Targetmol); ref Kang J, et al. J Pharmacol Exp Ther. 2001 Oct;299(1):290-6; read-out: IC50, K+ channel (KvQT1/minK) antagonist; cited from earlier work
Source text: Supplement Table_1.XLSX, sheet "Sheet1" | column: Bioactivity

[5] = tested on: E. coli MG1655; assay: Time-kill curve; format: cell-based, Escherichia coli; details: 1 × 10^6 CFU in MHB; CAS 16 μg/mL, rifampin 1 μg/mL, alone or combined; counted at 4, 8, 24 h
Description: (§2) At each time point (0, 4, 8, and 24 h), 100 μL of the bacterial solution was continuously diluted 10-fold in physiological saline. Subsequently, the suspension was then plated onto LB agar plates and cultured for an overnight period at 37°C for bacterial count.

[6] = tested on: E. coli 72; assay: Time-kill curve; format: cell-based, Escherichia coli; details: 1 × 10^6 CFU in MHB; CAS 32 μg/mL, rifampin 8 μg/mL, alone or combined; counted at 4, 8, 24 h
Description: as §2

[7] = tested on: E. coli 72; assay: Galleria mellonella infection model; format: in vivo; details: 2.25 × 10^5 CFU E. coli 72; CAS 64 mg/kg, rifampin 16 mg/kg, alone or in combination, injected via proleg; 10 larvae per group; survival over 48 h
[8] = tested on: Salmonella Typhimurium ATCC14028; assay: Checkerboard assay; format: cell-based; details: MHB, 18 h at 37°C, OD600
Description: as §1

[9] = tested on: E. coli 69; assay: Checkerboard assay; format: cell-based, Escherichia coli; details: MHB, 18 h at 37°C, OD600
Description: as §1

[10] = tested on: E. coli 72; assay: Checkerboard assay; format: cell-based, Escherichia coli; details: multidrug-resistant strain, MHB, 18 h at 37°C, OD600
Description: as §1

[11] = tested on: E. coli ATCC25922; assay: Checkerboard assay; format: cell-based, Escherichia coli; details: MHB, 18 h at 37°C, OD600
Description: as §1

[12] = tested on: P. aeruginosa PAO1; assay: Checkerboard assay; format: cell-based, Pseudomonas aeruginosa; details: MHB, 18 h at 37°C, OD600
Description: as §1

[13] = library drug with 2 μg/mL rifampin, LB medium, 96-well, 8 h static culture at 37°C, OD600, relative to PMBN (positive) and DMSO (negative) controls, %, table head prints no unit

CCCCCOc1ccc(-c2ccc(-c3ccc(C(=O)N[C@H]4C[C@@H](O)[C@@H](O)NC(=O)[C@@H]5[C@@H](O)[C@@H](C)CN5C(=O)[C@H]([C@@H](C)O)NC(=O)[C@H]([C@H](O)[C@@H](O)c5ccc(O)cc5)NC(=O)[C@@H]5C[C@@H](O)CN5C(=O)[C@H]([C@@H](C)O)NC4=O)cc3)cc2)cc1 [Anidulafungin] ({pTerphenylCO(4''-OnC5H11)}-[Orn(4R-OH,5R-OH)]T[Hyp][hTyr(3S-OH,4S-OH)]T[Pro(3S-OH,4S-Me)]; lactam 1-C; N-terminus assumed)
FICI in combination with rifampin ([1]; MHB, 18 h at 37°C): > 1
Synergistic activity with rifampin (in words) [1]: weak synergistic activity

CC(=O)OC[C@H]1O[C@@H]([S-])[C@H](OC(C)=O)[C@@H](OC(C)=O)[C@@H]1OC(C)=O.CCP(CC)CC.[Au+] [Auranofin]
Growth inhibition, Compound + rifampin [2]: 60%
Growth inhibition, Compound [3]: 64%

O=C(Cn1cnnn1)N[C@@H]1C(=O)N2C(C(=O)[O-])=C(CSc3nncs3)CS[C@H]12.[Na+] [Ceftezole sodium]
Growth inhibition, Compound + rifampin [2]: 102%
Growth inhibition, Compound [3]: 109%

O=C(O)c1cn(C2CC2)c2cc(N3CCNCC3)c(F)cc2c1=O [Ciprofloxacin hydrochloride hydrate]
Growth inhibition, Compound [2]: 101%

O=C(O)c1cn(C2CC2)c2cc(N3CCNCC3)c(F)cc2c1=O [Ciprofloxacin hydrochloride]
Growth inhibition, Compound [2]: 98%

CO[C@@]1(NC(=O)CSC(F)F)C(=O)N2C(C(=O)[O-])=C(CSc3nnnn3CCO)CO[C@@H]21.[Na+] [Flomoxef sodium]
Growth inhibition, Compound + rifampin [2]: 101%
Growth inhibition, Compound [3]: 108%

C=C1c2c(Cl)ccc(O)c2C(=O)C2=C(O)[C@]3(O)C(=O)C(C(N)=O)=C(O)[C@@H](N(C)C)[C@@H]3[C@@H](O)[C@H]12.O=C(O)c1cc(S(=O)(=O)O)ccc1O [Meclocycline sulfosalicylate salt]
Growth inhibition, Compound + rifampin [2]: 100%
Growth inhibition, Compound [3]: 100%

OC(c1cc(C(F)(F)F)nc2c(C(F)(F)F)cccc12)C1CCCCN1 (centres unmarked) [Mefloquine]
IC50 [4]: ~1 µM

COS(=O)(=O)[O-].C[n+]1c2ccccc2nc2ccccc21 [Phenazine methosulfate]
Growth inhibition, Compound + rifampin [2, 13]: 76%
Growth inhibition, Compound [3]: 80%

CN1CCN(c2c(F)cc3c(=O)c(C(=O)O)cn4c3c2SCC4)CC1.Cl [Rufloxacin hydrochloride]
Growth inhibition, Compound + rifampin [2]: 100%
Growth inhibition, Compound [3]: 113%

Nc1n[n+]([O-])c2ccccc2[n+]1[O-] [Tirapazamine]
Growth inhibition, Compound [3]: 114%

NC[C@H]1O[C@H](O[C@H]2[C@H](O)[C@@H](O[C@H]3O[C@H](CO)[C@@H](O)[C@H](N)[C@H]3O)[C@H](N)C[C@@H]2N)[C@H](N)C[C@@H]1O [Tobramycin]
Growth inhibition, Compound [3]: 107%

Cn1nnc(-c2ccc(-c3ccc(N4C[C@H](CO)OC4=O)cc3F)cn2)n1 [Torezolid]
Growth inhibition, Compound [3]: 61%

Cl.NC1CCN(c2nc3c(cc2F)c(=O)c(C(=O)O)cn3-c2ccc(F)cc2F)C1 (centres unmarked) [Tosufloxacin hydrochloride]
Growth inhibition, Compound [3]: 103%

Cc1ccc(S(=O)(=O)O)cc1.NC1CCN(c2nc3c(cc2F)c(=O)c(C(=O)O)cn3-c2ccc(F)cc2F)C1.O (centres unmarked) [Tosufloxacin p-Toluenesulfonate Hydrate]
Growth inhibition, Compound [3]: 99%

NC1CCN(c2nc3c(cc2F)c(=O)c(C(=O)O)cn3-c2ccc(F)cc2F)C1 (centres unmarked) [Tosufloxacin]
Growth inhibition, Compound [3]: 106%

Oc1cc(Cl)ccc1Oc1ccc(Cl)cc1Cl [Triclosan]
Growth inhibition, Compound [3]: 79%

O=c1[nH]c(=O)n([C@H]2C[C@H](O)[C@@H](CO)O2)cc1C(F)(F)F [Trifluridine]
Growth inhibition, Compound [3]: 27%

N[C@@H]1[C@H]2CN(c3nc4c(cc3F)c(=O)c(C(=O)O)cn4-c3ccc(F)cc3F)C[C@@H]12 [Trovafloxacin mesylate]
Growth inhibition, Compound [3]: 116%

Cc1cn([C@H]2C[C@H](N=[N+]=[N-])[C@@H](CO)O2)c(=O)[nH]c1=O [Zidovudine]
Growth inhibition, Compound [3]: 95%

c1cnc2c(c1)ccc1cccnc12 [o-Phenanthroline]
Growth inhibition, Compound [3]: 79%

CCN1CCN(C(=O)N[C@@H](C(=O)N[C@@H]2C(=O)N3[C@@H]2SC(C)(C)[C@@H]3C(=O)O)c2ccccc2)C(=O)C1=O [piperacillin]
Growth inhibition, Compound [3]: 107%

CO[C@H]1/C=C/O[C@@]2(C)Oc3c(C)c(O)c4c(O)c(c(/C=N/N5CCN(C)CC5)c(O)c4c3C2=O)NC(=O)/C(C)=C\C=C\[C@H](C)[C@H](O)[C@@H](C)[C@@H](O)[C@@H](C)[C@H](OC(C)=O)[C@@H]1C [rifampin]
Time-kill, bacterial count [5]: no antimicrobial efficacy
Time-kill, bacterial count [6]: no antimicrobial efficacy
MIC ([1]; Escherichia coli, MG1655, rifampin alone, MHB, 18 h at 37°C, OD600): 8 µg/mL
MIC of rifampin in combination with CAS ([1]; rifampin with CAS, MHB, 18 h at 37°C, OD600): 0.5 µg/mL
Death/mortality rate of G. mellonella larvae challenged with E. coli 72 [7]: could not reduce the death rate
MIC ([8]; Salmonella enterica, rifampin alone): 16 µg/mL
MIC of rifampin in combination with CAS ([8]; rifampin with CAS): 0.5 µg/mL
MIC ([9]; Escherichia coli, 69, rifampin alone): 8 µg/mL
MIC of rifampin in combination with CAS ([9]; rifampin with CAS): 0.5 µg/mL
MIC ([10]; Escherichia coli, 72, rifampin alone): 64 µg/mL
MIC of rifampin in combination with CAS ([10]; rifampin with CAS): 0.5 µg/mL
MIC ([11]; Escherichia coli, ATCC25922, rifampin alone): 4 µg/mL
MIC of rifampin in combination with CAS ([11]; rifampin with CAS): 0.25 µg/mL
MIC ([12]; Pseudomonas aeruginosa, PAO1, rifampin alone): 16 µg/mL
MIC of rifampin in combination with CAS ([12]; rifampin with CAS): 0.5 µg/mL
Growth inhibition, Compound [3]: 101%

Cefetamet pivoxil hydrochloride
Growth inhibition, Compound + rifampin [2]: 79%
Growth inhibition, Compound [3]: 98%

Colistimethate Sodium
Growth inhibition, Compound + rifampin [2, 13]: 95%
Growth inhibition, Compound [3]: 94%

Colistin Methanesulfonate (sodium salt)
Growth inhibition, Compound + rifampin [2, 13]: 102%
Growth inhibition, Compound [3]: 87%

Colistin sulfate (1066-17-7 free base)
Growth inhibition, Compound + rifampin [2, 13]: 113%
Growth inhibition, Compound [3]: 104%

Echinocandin B nucleus hydrochloride [ECBN HCl]
FICI in combination with rifampin ([1]; MHB, 18 h at 37°C): > 1
Synergistic activity with rifampin (in words) [1]: weak synergistic activity

Micafungin sodium
FICI in combination with rifampin ([1]; MHB, 18 h at 37°C): > 1
Synergistic activity with rifampin (in words) [1]: weak synergistic activity

Pneumocandin B0
FICI in combination with rifampin ([1]; MHB, 18 h at 37°C): > 1
Synergistic activity with rifampin (in words) [1]: weak synergistic activity

Polymyxin B sulfate (1404-26-8 free base)
Growth inhibition, Compound + rifampin [2, 13]: 104%

Streptozocin
Growth inhibition, Compound + rifampin [2]: 69%
Growth inhibition, Compound [3]: 62%
